We go through 1 compound from patent US11559490B2, “Pharmaceutical formulation” (Merck Patent GmbH, priority 2017, dated 2023).

For series [1], the system named is six xenograft mouse models of human cancer. As to the kind of experiment: Xenograft mouse models of human cancer, combination with ionizing radiation. The conditions noted are these: all models, oral administration with fractionated radiation 2 Gy x 5. Format: in vivo. The protocol:
(§1) The therapeutic relevance of DNA-PK inhibition by the drug substance as such was investigated in vivo in combination with ionizing radiation (IR), a clinically established DSB-inducing treatment. The drug substance was tested for activity in six xenograft mouse models of human cancer. The models were chosen from different cancer indications (colon, lung, head and neck, pancreatic), and histological subtypes (adeno, squamous, large cell). Ionizing radiation was administered using a fractionated schedule of 2 Gy per day administered over five consecutive days (total radiation dose=10 Gy). […] 10 min prior to each fraction of radiation (ONC397-1-2AZ, ONC397-1-3AZ, ONC397-1-4AZ, ONC397-1-5AZ, ONC397-1-8AZ).
(§2) The radiotherapy enhancing effect was quantified across the tested models by the time to reaching 400% initial volume for the 150 mg/kg study arms. The resulting Kaplan-Meier plots were compared by the log-rank test.

For series [2], the system named is A549. The conditions noted are these: 150 mg/kg oral, 10 min prior to each 2 Gy fraction, 5 days (10 Gy). The protocol:
as §1, §2

Series [3] concerns HCT116. The conditions noted are these: 150 mg/kg oral, 10 min prior to each 2 Gy fraction, 5 days (10 Gy). The protocol: as §1, §2
For series [4], the system named is NCI-H460. The conditions noted are these: 150 mg/kg oral, 10 min prior to each 2 Gy fraction, 5 days (10 Gy). The protocol:
as §1, §2

The nature of series [5]: Solubility of drug substance in water and simulated gastric fluids. Format: physicochemical.
In series [6] the target is DNA-dependent protein kinase (DNA-PK) (Homo sapiens, UniProt P78527). The conditions noted are these: cited from earlier work.
In series [7] the test system is DNA-PK autophosphorylation in cancer cell lines. The conditions noted are these: cited from earlier work.

Turning to `COc1ccc([C@@H](O)c2cc(-c3ncnc4cc(N5CCOCC5)ccc34)c(F)cc2Cl)nn1` [drug substance, (S)-[2-chloro-4-fluoro-5-(7-morpholin-4-yl-quinazolin-4-yl)phenyl]-(6-methoxy-pyridazin-3-yl)methanol], the “enhancement of the radiation effect” value in series [1] is given as “strong enhancement of the radiation effect”. The “enhancement ratio (time to reaching 400% initial volume)” value in series [2] was 1.5; in series [3] it was 1.5; in series [4], 2.6. The “solubility in water and simulated gastric fluids” value in series [5] is reported as “poor solubility”. Moreover, the “inhibition of DNA-PK activity” value in series [6] was “potent and selective inhibitor”. In addition, the “inhibition of DNA-PK autophosphorylation” value in series [7] is listed as “potent inhibition”.
